Laboratory results: patent US20200069592A1, “HSP90 INHIBITOR ORAL FORMULATIONS AND RELATED METHODS” (Samus Therapeutics, Inc., priority 2017, published 2020)

Legend:
[1] = Plasma pharmacokinetics after single oral dose in ORA-Plus or SyrSpend SF (Example 6), LC-MS/MS; assay type: in vivo, Sprague Dawley rats; conditions: for AUC % Extrap / Cl_F / Vz_F / AUC(0-inf) / AUC(0-t) / Cmax / Tmax / half-life: rat plasma; for % AUC0-last test vs reference: rats, ratio of group averages; for AUC(0-inf) / AUC(0-t) / Cmax / Tmax / half-life: female, rat, plasma, po
[2] = Particle size distribution (Cilas 1180) of as-received and jet milled API (Example 8); assay type: physicochemical
Method: Compound 2 API ‘as-received’ (Lots #2064-118-8, #2064-146-9, and # BPR-WS 1828-194D(2HCl)—B1-19) were analyzed for PSD on a Cilas 1180 particle size analyzer. Subsequently jet milled API batches B # L0441-20-JM51mmP1, B # L0441-20-JM51mmP2, B # L0441-20-JM51mmP3, and B # L0441-84-JM146mmP1 were also analyzed for PSD Approximately 50 mg Compound 2-2HCl was dispersed into 40 mL 0.2% (w/w) span 80 in n-hexanes (dispersant) and allowed to mix for 60 minutes. API was kept suspended in dispersant via stirring and sonication during test.
A jet milling study was performed on a batch of Compound 2 2HCl with jet mill Fluid Energy Asset #00170 outfitted with a 51 mm collection loop. Batches B # L0441-29-JM51mmP1, B # L0441-29-JM51mmP2, and B # L0441-29-JM51mmP3 were created from ˜10 g of Compound 2 lot # BPR-WS1828-194D(2HCl)-B1-19 subjected to 3 passes. Jet mill settings for grinder nozzle and pusher nozzle as follows: Pass 1 grinder nozzle=60 psi & pusher nozzle=80 psi, Pass 2 and 3 grinder nozzle=50 psi & pusher nozzle=70 psi.
After successfully jet milling on the R&D scale, B # L0441-84-JM146mmP1 was created from Compound 2-2HCl lot # BPR-17-87-B1-21d which was processed with a single pass to confirm GMP scale up conditions in the R&D laboratory by passing 85 g through the GMP jet mill Jet-O-Mizer Asset #01 16 Model 0101 outfitted with 146 mm collection loop using a standard nylon 4×48-inch collection sock inside a PTFE 4×48-inch sock to minimize fines loss. The pressure settings for the grinder and pusher nozzle were: Grinder nozzle 60 psi, Pusher nozzle 70 psi.

[3] = Solubility of the 2HCl salt in dosing vehicle (Example 6); assay type: physicochemical; conditions: SyrSpend SF Solution (dosing vehicle), aqueous with cosolvent or surfactant or cyclodextrin; pH ~2.5
Excerpt: Dose levels of Compound 2 were based on the free base, not the salt. […] Dosage forms of Compound 2 2HCl in ORA-Plus® and in SyrSpend® SF Cherry appeared to be suspension instead of clear solutions. Final physical appearance matched that of the vehicle used. Due to opaque properties of vehicles, full solubility could not be confirmed. However, resultant dosing material appeared homogenous. Dosage forms of Compound 2 2HCl in ORA-Plus® and in SyrSpend® SF Cherry were made fresh immediately prior to use.

[4] = G3: 2HCl, 24 mg/kg single oral dose, ORA-plus
[5] = G4: 2HCl, 48 mg/kg single oral dose, ORA-plus
[6] = G9: 2HCl, 24 mg/kg single oral dose, SyrSpend
[7] = G10: 2HCl, 48 mg/kg single oral dose, SyrSpend, n = 2
[8] = G11: 2HCl, 60 mg/kg single oral dose, SyrSpend, n = 4
[9] = Sprague Dawley, 24 mg/kg, G3: 2HCl, 24 mg/kg single oral dose, ORA-plus
[10] = Sprague Dawley, 24 mg/kg, G9: 2HCl, 24 mg/kg single oral dose, SyrSpend
[11] = Sprague-Dawley, 24 mg/kg, G9: 2HCl, 24 mg/kg single oral dose, SyrSpend
[12] = Sprague-Dawley, 48 mg/kg, G4: 2HCl, 48 mg/kg single oral dose, ORA-plus
[13] = Sprague-Dawley, 48 mg/kg, G10: 2HCl, 48 mg/kg single oral dose, SyrSpend
[14] = Sprague-Dawley, 60 mg/kg, G11: 2HCl, 60 mg/kg single oral dose, SyrSpend
[15] = Lot 2064-118-8, API as received
[16] = Lot 2064-146-9, API as received
[17] = Lot BPR-17-87-B1-21d, API as received
[18] = Lot BPR-17-87-B1-21d, jet milled batch B#L0441-84-JM146mmP1
[19] = Lot BPR-WS1828-194D(2HCL)-B1-19, API as received
[20] = Lot BPR-WS1828-194D(2HCL)-B1-19, jet milled batch B#L0441-20-JM51mmP1
[21] = Lot BPR-WS1828-194D(2HCL)-B1-19, jet milled batch B#L0441-20-JM51mmP2
[22] = Lot BPR-WS1828-194D(2HCL)-B1-19, jet milled batch B#L0441-20-JM51mmP3

What does the source list for `CC(C)(C)CNCCn1c(Sc2cc3c(cc2I)OCO3)nc2c(N)ncnc21` [Compound 2 2HCl]?
AUC % Extrap [1, 4]: 4.00 ± 1.84%; Cl_F [1, 4]: 357.3 ± 155 mL/min/kg; Vz_F [1, 4]: 81.00 ± 80.22 L/kg; AUC % Extrap [1, 5]: 1.32 ± 2.64%; Cl_F [1, 5]: 154 ± 76.5 mL/min/kg; Vz_F [1, 5]: 28.42 ± 13.10 L/kg; AUC % Extrap [1, 6]: 4.72 ± 4.49%; Cl_F [1, 6]: 405.8 ± 204.3 mL/min/kg; Vz_F [1, 6]: 129.96 ± 81.45 L/kg; AUC % Extrap [1, 7]: 2.05 ± 0.35 %; Cl_F [1, 7]: 124 ± 23 mL/min/kg; Vz_F [1, 7]: 45.95 ± 8.11 L/kg; AUC % Extrap [1, 8]: 0.68 ± 0.89 %; Cl_F [1, 8]: 219.2 ± 72.5 mL/min/kg; Vz_F [1, 8]: 55.47 ± 25.73 L/kg; % AUC0-last test vs reference ([1]; Group 3 (24 mg/kg 2HCl ORA-plus) vs Group 9 (24 mg/kg 2HCl SyrSpend)): 109.55%; % AUC0-last test vs reference ([1]; Group 4 (48 mg/kg 2HCl ORA-plus) vs Group 10 (48 mg/kg 2HCl SyrSpend)): 73.71%; % AUC0-last test vs reference ([1]; Group 9 (24 mg/kg 2HCl SyrSpend) vs Group 10 (48 mg/kg 2HCl SyrSpend)): 13.71%; % AUC0-last test vs reference ([1]; Group 9 (24 mg/kg 2HCl SyrSpend) vs Group 11 (60 mg/kg 2HCl SyrSpend)): 24.05%; % AUC0-last test vs reference ([1]; Group 10 (48 mg/kg 2HCl SyrSpend) vs Group 11 (60 mg/kg 2HCl SyrSpend)): 175.45%; AUC(0-inf) [1, 9]: 1340 ± 678 ng·h/mL; AUC(0-t) [1, 9]: 1290 ± 666 ng·h/mL; Cmax [1, 9]: 407 ± 278 ng/mL; Tmax [1, 9]: 1.6 ± 0.55 h; half-life [1, 9]: 2.34 ± 1.76 h; AUC(0-inf) [1, 10]: 1240 ± 717 ng·h/mL; AUC(0-t) [1, 10]: 1180 ± 688 ng·h/mL; AUC(0-t) ([1]; Sprague Dawley, 48 mg/kg, G10: 2HCl, 48 mg/kg single oral dose, SyrSpend): 8580 ± 2220 ng·h/mL; AUC(0-inf) ([1]; Sprague Dawley, 48 mg/kg, G10: 2HCl, 48 mg/kg single oral dose, SyrSpend, n = 2): 6560 ± 1220 ng·h/mL; AUC(0-t) ([1]; Sprague Dawley, 60 mg/kg, G11: 2HCl, 60 mg/kg single oral dose, SyrSpend): 4890 ± 1310 ng·h/mL; AUC(0-inf) ([1]; Sprague Dawley, 60 mg/kg, G11: 2HCl, 60 mg/kg single oral dose, SyrSpend, n = 4): 4950 ± 1780 ng·h/mL; Cmax [1, 11]: 270 ± 184 ng/mL; Tmax [1, 11]: 1.2 ± 0.45 h; half-life [1, 11]: 3.41 ± 1.24 h; AUC(0-inf) [1, 12]: 6370 ± 3170 ng·h/mL; AUC(0-t) [1, 12]: 6320 ± 3210 ng·h/mL; Cmax [1, 12]: 1120 ± 429 ng/mL; Tmax [1, 12]: 2.2 ± 1.1 h; half-life [1, 12]: 2.18 ± 0.35 h; Cmax [1, 13]: 1140 ± 311 ng/mL; Tmax [1, 13]: 4 ± 1.41 h; half-life ([1]; Sprague-Dawley, 48 mg/kg, G10: 2HCl, 48 mg/kg single oral dose, SyrSpend, n = 2): 4.28 ± 0.04 h; Cmax [1, 14]: 825 ± 247 ng/mL; Tmax [1, 14]: 2.6 ± 1.34 h; half-life ([1]; Sprague-Dawley, 60 mg/kg, G11: 2HCl, 60 mg/kg single oral dose, SyrSpend, n = 4): 2.84 ± 0.83 h; Particle size distribution d10 [2, 15]: 12.0 μm; Particle size distribution d50 [2, 15]: 42.8 μm; Particle size distribution d90 [2, 15]: 131.6 μm; Particle size distribution d10 [2, 16]: 8.4 μm; Particle size distribution d50 [2, 16]: 23.0 μm; Particle size distribution d90 [2, 16]: 57.7 μm; Particle size distribution d10 [2, 17]: 11.6 μm; Particle size distribution d50 [2, 17]: 35.7 μm; Particle size distribution d90 [2, 17]: 98.3 μm; Particle size distribution d10 [2, 18]: 1.9 μm; Particle size distribution d50 [2, 18]: 3.9 μm; Particle size distribution d90 [2, 18]: 8.0 μm; Particle size distribution d10 [2, 19]: 11.0 μm; Particle size distribution d50 [2, 19]: 33.1 μm; Particle size distribution d90 [2, 19]: 83.0 μm; Particle size distribution d10 [2, 20]: 3.1 μm; Particle size distribution d50 [2, 20]: 7.9 μm; Particle size distribution d90 [2, 20]: 17.3 μm; Particle size distribution d10 [2, 21]: 2.3 μm; Particle size distribution d50 [2, 21]: 5.6 μm; Particle size distribution d90 [2, 21]: 11.7 μm; Particle size distribution d10 [2, 22]: 2.0 μm; Particle size distribution d50 [2, 22]: 4.8 μm; Particle size distribution d90 [2, 22]: 10.1 μm; solubility [3]: 20 to 25 mg/mL
